Counter-ions that a name gives are not always drawn.
Target: human LSD-1 (Homo sapiens (Human), UniProt O60341)
Assay: In vitro enzyme inhibition assay LSD-1 (TR-FRET)
Format: biochemical
Settings: not given
Excerpt: This assay determines the ability of a test compound to inhibit LSD-1 demethylase activity.
The enzymatic assay of LSD-1 activity is based on Time Resolved-Fluorescence Resonance Energy Transfer (TR-FRET) detection.

Structure (SMILES)	IC50
COc1ccc(-c2c(-c3ccc(C#N)c(F)c3)nc(N(C)C3CCNCC3)n(C)c2=O)cc1 [Example 55, 2-fluoro-4-[5-(4-methoxy-phenyl)-1-methyl-2-(methyl-piperidin-4-yl-amino)-6-oxo-1,6-dihydro-pyrimidin-4-yl]-benzonitrile]	< 100 nM

Same assay, conditions: TR-FRET, H3K4me1-biotin labeled peptide

IC50	Structure (SMILES)
> 10000 nM	Cn1c(N2CCC(N)CC2)nc(-c2ccccc2)c(-c2ccc3c(ccn3C)c2)c1=O [Example 114, 2-(4-amino-piperidin-1-yl)-3-methyl-5-(1-methyl-1H-indol-5-yl)-6-phenyl-3H-pyrimidin-4-one]
< 100 nM	Cn1c(N2CCC(N)CC2)nc(-c2ccc(C#N)c(F)c2)c(-c2ccc(N3CCCC3)nc2)c1=O [Example 60, 4-[2-(4-amino-piperidin-1-yl)-1-methyl-6-oxo-5-(6-pyrrolidin-1-yl-pyridin-3-yl)-1,6-dihydro-pyrimidin-4-yl]-2-fluoro-benzonitrile]
< 100 nM	CNC(=O)c1ccc(-c2c(-c3ccc(C#N)c(F)c3)nc(N3CCC(N)CC3)n(C)c2=O)cn1 [Example 50, 5-[2-(4-amino-piperidin-1-yl)-4-(4-cyano-3-fluoro-phenyl)-1-methyl-6-oxo-1,6-dihydro-pyrimidin-5-yl]-pyridine-2-carboxylic acid methylamide]
< 100 nM	COc1ccc(-c2c(-c3ccc(C#N)c(F)c3)nc(NC3CCNCC3)n(C)c2=O)cc1 [Example 53, 2-fluoro-4-[5-(4-methoxy-phenyl)-1-methyl-6-oxo-2-(piperidin-4-ylamino)-1,6-dihydro-pyrimidin-4-yl]-benzonitrile]
< 100 nM	COc1ccc(-c2c(-c3ccc(C#N)cc3)nc(N3CCCNCC3)n(C)c2=O)cn1 [Example 62]
> 10000 nM	COc1ccc(-c2c(-c3ccccc3C#N)nc(N3CCC(N)CC3)n(C)c2=O)cc1F [Example 119, 2-[2-(4-aminopiperidin-1-yl)-5-(3-fluoro-4-methoxyphenyl)-1-methyl-6-oxopyrimidin-4-yl]benzonitrile]
< 100 nM	COc1ccc(-c2c(-c3ccc(C#N)cc3)nc(NC[C@H]3CCNC3)n(C)c2=O)cc1F [Example 44, 4-{5-(3-fluoro-4-methoxy-phenyl)-1-methyl-6-oxo-2-[(3S)-(pyrrolidin-3-ylmethyl)-amino]-1,6-dihydro-pyrimidin-4-yl}-benzonitrile]
100 to 1000 nM	Cn1c(N2CCC(N)CC2)nc(-c2ccc(C#N)c(F)c2)c(C#N)c1=O [Example 121, 2-(4-amino-piperidin-1-yl)-4-(4-cyano-3-fluoro-phenyl)-1-methyl-6-oxo-1,6-dihydro-pyrimidine-5-carbonitrile]
< 100 nM	COc1ccc(-c2c(-c3ccc(C#N)c(F)c3)nc(N3CC(CN)C3)n(C)c2=O)cc1 [Example 69, 4-[2-(3-aminomethyl-azetidin-1-yl)-5-(4-methoxy-phenyl)-1-methyl-6-oxo-1,6-dihydro-pyrimidin-4-yl]-2-fluoro-benzonitrile]
< 100 nM	Cn1c(N2CCC(N)CC2)nc(-c2ccc(C#N)c(F)c2)cc1=O [Example 108, 4-[2-(4-aminopiperidin-1-yl)-1-methyl-6-oxopyrimidin-4-yl]-2-fluorobenzonitrile]
< 100 nM	COc1ccc(-c2c(-c3ccc(C#N)cc3)nc(NC[C@@H]3CCNC3)n(C)c2=O)cc1F [Example 45, 4-{5-(3-fluoro-4-methoxy-phenyl)-1-methyl-6-oxo-2-[(3R)-(pyrrolidin-3-ylmethyl)-amino]-1,6-dihydro-pyrimidin-4-yl}-benzonitrile]
< 100 nM	COc1ccc(-c2c(-c3ccc(C#N)c(F)c3)nc(N3CCNCC3)n(C)c2=O)cc1F [Example 47, 2-fluoro-4-[5-(3-fluoro-4-methoxy-phenyl)-1-methyl-6-oxo-2-piperazin-1-yl-1,6-dihydro-pyrimidin-4-yl]-benzonitrile]
< 100 nM	C#Cc1c(-c2ccc(C#N)c(F)c2)nc(N2CCC(N)CC2)n(C)c1=O [Example 110]
< 100 nM	COc1ccc(-c2c(-c3ccc(C#N)c(F)c3)nc(N3CCC[C@H](N)C3)n(C)c2=O)cc1F [Example 28, 4-[2-((3S)-3-amino-piperidin-1-yl)-5-(3-fluoro-4-methoxy-phenyl)-1-methyl-6-oxo-1,6-dihydro-pyrimidin-4-yl]-2-fluoro-benzonitrile]
< 100 nM	CNC(=O)c1ccc(-c2c(-c3ccc(C#N)cc3)nc(N3CCC(N)CC3)n(C)c2=O)cc1F [Example 40, {4-[2-(4-aminopiperidyl)-6-(4-cyanophenyl)-3-methyl-4-oxo-(3-hydropyrimidin-5-yl)]-2-fluorophenyl}-N-methylcarboxamide]
< 100 nM	COc1ccc(-c2c(-c3ccc(C#N)c(F)c3)nc(N3CCC(N)CC3)n(CC(=O)O)c2=O)cc1 [Example 15, [2-(4-amino-piperidin-1-yl)-4-(4-cyano-3-fluoro-phenyl)-5-(4-methoxy-phenyl)-6-oxo-6H-pyrimidin-1-yl]-acetic acid]
< 100 nM	Cn1c(N2CCC(N)CC2)nc(-c2ccc(C#N)c(F)c2)c(C#N)c1=O [Example 19, 2-(4-amino-piperidin-1-yl)-4-(4-cyano-3-fluoro-phenyl)-1-methyl-6-oxo-1,6-dihydro-pyrimidine-5-carbonitrile]
> 10000 nM	COc1ccc(-c2c(-c3cccc(C#N)c3)nc(N3CCC(N)CC3)n(C)c2=O)cc1F [Example 118, 3-[2-(4-aminopiperidin-1-yl)-5-(3-fluoro-4-methoxyphenyl)-1-methyl-6-oxopyrimidin-4-yl]benzonitrile]
< 100 nM	CNC1CCN(c2nc(-c3ccc(C#N)c(F)c3)c(-c3ccc(C)nc3)c(=O)n2C)CC1 [Example 21, 2-fluoro-4-[1-methyl-2-(4-methylamino-piperidin-1-yl)-5-(6-methyl-pyridin-3-yl)-6-oxo-1,6-dihydro-pyrimidin-4-yl]-benzonitrile]
< 100 nM	CN(C)c1ncc(-c2c(-c3ccc(C#N)c(F)c3)nc(N3CCC(N(C)C)CC3)n(C)c2=O)cn1 [Example 81, 4-[2′-dimethylamino-2-(4-dimethylamino-piperidin-1-yl)-1-methyl-6-oxo-1,6-dihydro-[5,5′]bipyrimidinyl-4-yl]-2-fluoro-benzonitrile]
< 100 nM	Cc1ccc(-c2c(-c3ccc(C#N)c(F)c3)nc(N3CCC(N(C)C)CC3)n(C)c2=O)cn1 [Example 82, 4-[2-(4-dimethylamino-piperidin-1-yl)-1-methyl-5-(6-methyl-pyridin-3-yl)-6-oxo-1,6-dihydro-pyrimidin-4-yl]-2-fluoro-benzonitrile]
< 100 nM	Cn1c(N2CCC(N)CC2)nc(-c2ccc(C#N)c(F)c2)c(-c2ccc(F)cc2)c1=O [Example 101, 4-[2-(4-aminopiperidin-1-yl)-5-(4-fluorophenyl)-1-methyl-6-oxopyrimidin-4-yl]-2-fluorobenzonitrile]

Structure (SMILES)	IC50
COc1ccc(-c2c(-c3ccc(C#N)c(F)c3)nc(N3CC[C@@H](N)C3)n(C)c2=O)cc1F [Example 27, 4-[2-((3R)-3-aminopyrrolidinyl)-5-(3-fluoro-4-methoxyphenyl)-1-methyl-6-oxohydropyrimidin-4-yl]-2-fluorobenzenecarbonitrile]	< 100 nM
COc1ccc(-c2c(-c3ccc(C#N)c(F)c3)nc(N3CCCNCC3)n(C)c2=O)cn1 [Example 61, 4-[2-[1,4]diazepan-1-yl-5-(6-methoxy-pyridin-3-yl)-1-methyl-6-oxo-1,6-dihydro-pyrimidin-4-yl]-2-fluoro benzonitrile]	< 100 nM
COc1ncc(-c2c(-c3ccc(C#N)c(F)c3)nc(N3CCC(N)CC3)n(C)c2=O)cc1F [Example 26, 4-[2-(4-aminopiperidyl)-5-(5-fluoro-6-methoxy(3-5,6-dihydropyridyl))-1-methyl-6-oxohydropyrimidin-4-yl]-2-fluorobenzenecarbonitrile]	< 100 nM

Test system: CD11b expression in THP-1 (AML) cells
Assay: LSD-1 CD11b cellular assay (flow cytometry)
Settings: Homo sapiens, THP-1, 96 h, read-out: THP-1 IC50

IC50	Structure (SMILES)
< 100 nM	Cn1c(N2CCC(N)CC2)nc(-c2ccc(C#N)c(F)c2)c(-c2ccc(N3CCCC3)nc2)c1=O [Example 60, 4-[2-(4-amino-piperidin-1-yl)-1-methyl-6-oxo-5-(6-pyrrolidin-1-yl-pyridin-3-yl)-1,6-dihydro-pyrimidin-4-yl]-2-fluoro-benzonitrile]
< 100 nM	Cn1c(N2CCC(N)CC2)nc(-c2ccc(C#N)c(F)c2)c(-c2ccc3c(ccn3C)c2)c1=O [Example 74, 4-[2-(4-amino-piperidin-1-yl)-1-methyl-5-(1-methyl-1H-indol-5-yl)-6-oxo-1,6-dihydro-pyrimidin-4-yl]-2-fluoro-benzonitrile]
< 100 nM	CNC(=O)c1ccc(-c2c(-c3ccc(C#N)c(F)c3)nc(N3CCC(N)CC3)n(C)c2=O)cn1 [Example 50, 5-[2-(4-amino-piperidin-1-yl)-4-(4-cyano-3-fluoro-phenyl)-1-methyl-6-oxo-1,6-dihydro-pyrimidin-5-yl]-pyridine-2-carboxylic acid methylamide]
< 100 nM	Cn1c(N2CCC(N)CC2)nc(-c2ccc(C#N)c(F)c2)c(-c2ccc3cc[nH]c3c2)c1=O [Example 75, 4-[2-(4-amino-piperidin-1-yl)-5-(1H-indol-6-yl)-1-methyl-6-oxo-1,6-dihydro-pyrimidin-4-yl]-2-fluoro-benzonitrile]
< 100 nM	Cn1c(N2CCC(N)CC2)nc(-c2ccc(C#N)c(F)c2)c(-c2ccc(C(F)(F)F)nc2)c1=O [Example 23, 4-{2-(4-aminopiperidyl)-1-methyl-6-oxo-5-[6-(trifluoromethyl) (3-pyridyl)] hydropyrimidin-4-yl}-2-fluorobenzenecarbonitrile]
< 100 nM	Cn1c(N2CCC(N)CC2)nc(-c2ccc(C#N)cc2)c(-c2ccc3c(cnn3C)c2)c1=O [Example 33, 4-[2-(4-aminopiperidyl)-1-methyl-5-(1-methyl(1H-indazol-5-yl))-6-oxohydropyrimidin-4-yl]benzenecarbonitrile]

Structure (SMILES)	IC50
COc1ccc(-c2c(-c3ccc(C#N)c(F)c3)nc(N3CC[C@@H](N)C3)n(C)c2=O)cc1F [Example 27, 4-[2-((3R)-3-aminopyrrolidinyl)-5-(3-fluoro-4-methoxyphenyl)-1-methyl-6-oxohydropyrimidin-4-yl]-2-fluorobenzenecarbonitrile]	< 100 nM
Cc1ccc(-c2c(-c3ccc(C#N)cc3)nc(N3CCC(N)CC3)n(C)c2=O)cc1 [Example 1, 4-(2-(4-aminopiperidin-1-yl)-1-methyl-6-oxo-5-p-tolyl-1,6-dihydropyrimidin-4-yl)benzonitrile, HCl salt]	< 100 nM
COc1ccc(-c2c(-c3ccc(C#N)cc3)nc(N3CCC(N)CC3)n(C)c2=O)cc1 [Example 2, 4-[2-(4-amino-piperidin-1-yl)-5-(4-methoxy-phenyl)-1-methyl-6-oxo-1,6-dihydro-pyrimidin-4-yl]-benzonitrile]	< 100 nM
COc1ccc(-c2c(-c3ccc(Cl)c(F)c3)nc(N3CCC(N)CC3)n(C)c2=O)cc1 [Example 111, 2-(4-amino-piperidin-1-yl)-6-(4-chloro-3-fluoro-phenyl)-5-(4-methoxy-phenyl)-3-methyl-3H-pyrimidin-4-one]	100 to 1000 nM

From US10328077B2 (CELGENE CORPORATION, priority 2016, dated 2019)
